According to patent publication US20260184687A1, “DIHYDROINDENE DERIVATIVES AS MALT1 INHIBITORS” (C4X Discovery Limited, priority 2022, published 2026):
pIC50: −log10 of the molar value.

These compounds were tested on IL-2 release from stimulated Jurkat cells (assay: Human IL-2 Release Phenotypic Assay (Assay 3)). Conditions: Homo sapiens, Jurkat, 48 h, Jurkat cells (clone E6-1), 200 ng/mL PMA + 300 ng/mL ionomycin, IL-2 by ELISA.
Assay type: cell-based
Method: This assay measured the inhibition by MALT1 inhibitors of the IL-2 release from stimulated Jurkat cells, a human immortalized T lymphocyte cell line. IL-2 production from Jurkat cells is regulated by activation of NFκB signalling, which is in turn regulated by MALT1 protease activity.
Jurkat cells (clone E6-1, ATCC) were cultured in RPMI1640 supplemented with 10% (v/v) FBS and 1% (v/v) penicillin/streptomycin (100× liquid stocks). Cells were seeded in 96-well white tissue culture-treated plates (Perkin Elmer) at 50 000 cells/well and incubated overnight at 37° C., 5% CO2. Test compounds in DMSO at half-log dilutions were added to the cells and incubated for 30 mins. Final DMSO concentration was 0.5%. Cells were then stimulated with 200 ng/mL PMA+300 ng/mL ionomycin and incubated for 48 hours. […] IC50 values were calculated using GraphPad Prism using 4-parameter non-linear regression curve fit.

SMILES	pIC50
CN(C(=O)[C@H]1C[C@H](N(C)C)C1)[C@@H](c1ccc(NC2Cc3ccccc3C2(C)C)nc1)C(F)(F)F (single isomer, unassigned) [Example 114]	5.99
CN1CCCC(C(=O)N(C)[C@@H](c2ccc(NC3Cc4ccccc4C3(C)C)cn2)C(F)(F)F)C1 (single isomer, unassigned) [Example 129]	5.74
CN(C(=O)C1CN2CCC1CC2)[C@@H](c1ccc(NC2Cc3ccccc3C2(C)C)cn1)C(F)(F)F (single isomer, unassigned) [Example 140]	5.90
CN(C(=O)N1CCS(=O)(=O)CC1)[C@@H](c1ccc(NC2Cc3ccccc3C2(C)C)cn1)C(F)(F)F (single isomer, unassigned) [Example 142]	5.75
CN1CCC(C(=O)N(C)[C@@H](c2ccc(NC3Cc4ccccc4C3(C)C)nc2)C(F)(F)F)CC1 (single isomer, unassigned) [Example 144]	5.58
CN(C(=O)C1CCNCC1)[C@@H](c1ccc(NC2Cc3ccccc3C2(C)C)cn1)C(F)(F)F (single isomer, unassigned) [Example 146]	6.32
CN(C(=O)[C@H]1C[C@]2(CCN2C)C1)[C@@H](c1ccc(NC2Cc3ccccc3C2(C)C)cn1)C(F)(F)F (single isomer, unassigned) [Example 159]	5.94
CCc1cccc2c1CC(Nc1ccc([C@H](N(C)C(=O)C3CCS(=O)(=O)CC3)C(F)(F)F)nc1)C2 (single isomer, unassigned) [Example 198]	5.92
CN(C(=O)C1CCS(=O)(=O)CC1)[C@@H](c1ccc(N[C@H]2Cc3ccc(Cl)cc3C2)cn1)C(F)(F)F (single isomer, unassigned) [Example 199]	6.54

Now from value to compound:

pIC50	SMILES
6.05	CN(C(=O)C1CC2(CNC(=O)OC2)C1)[C@@H](c1ccc(NC2Cc3ccccc3C2(C)C)nc1)C(F)(F)F (single isomer, unassigned) [Example 174]
6.20	CC(=O)N1CCC[C@H]1C(=O)N(C)[C@@H](c1ccc(N[C@H]2Cc3ccccc3C2(C)C)cn1)C(F)(F)F (single isomer, unassigned) [Example 194]
6.82	CN(C(=O)C1COCC(=O)N1)[C@@H](c1ccc(NC2Cc3ccccc3C2(C)C)cn1)C(F)(F)F (single isomer, unassigned) [Example 164]
6.13	CN(C(=O)C1CCS(=O)(=O)CC1)[C@@H](c1ccc(NC2Cc3cccc(C(F)(F)F)c3C2)cn1)C(F)(F)F (single isomer, unassigned) [Example 191]

Same assay, conditions: Jurkat cells (clone E6-1), 200 ng/mL PMA + 300 ng/mL ionomycin, 48 hours, IL-2 by ELISA

SMILES	pIC50
CN(C(=O)[C@H]1C[C@H](N(C)C)C1)[C@@H](c1ccc(NC2Cc3ccccc3C2(C)C)nc1)C(F)(F)F (single isomer, unassigned) [Example 115]	6.29
CN(C(=O)C1CCNC(=O)C1)[C@@H](c1ccc(NC2Cc3ccccc3C2(C)C)cn1)C(F)(F)F (single isomer, unassigned) [Example 117]	5.69

Second part, the compound after the results:

pIC50	SMILES
6.29	CN(C(=O)C1CCNC(=O)C1)[C@@H](c1ccc(NC2Cc3ccccc3C2(C)C)cn1)C(F)(F)F (single isomer, unassigned) [Example 116]
6.31	CN(C(=O)[C@H]1C[C@H](N(C)C)C1)[C@@H](c1ccc(NC2Cc3ccccc3C2(C)C)cn1)C(F)(F)F (single isomer, unassigned) [Example 113]

These compounds were tested against T1, FL hMALT1 enzyme (Homo sapiens, UniProt Q9UDY8) (assay: biochemical). Conditions: not given.
T1 sequence (Q9UDY8 1-824): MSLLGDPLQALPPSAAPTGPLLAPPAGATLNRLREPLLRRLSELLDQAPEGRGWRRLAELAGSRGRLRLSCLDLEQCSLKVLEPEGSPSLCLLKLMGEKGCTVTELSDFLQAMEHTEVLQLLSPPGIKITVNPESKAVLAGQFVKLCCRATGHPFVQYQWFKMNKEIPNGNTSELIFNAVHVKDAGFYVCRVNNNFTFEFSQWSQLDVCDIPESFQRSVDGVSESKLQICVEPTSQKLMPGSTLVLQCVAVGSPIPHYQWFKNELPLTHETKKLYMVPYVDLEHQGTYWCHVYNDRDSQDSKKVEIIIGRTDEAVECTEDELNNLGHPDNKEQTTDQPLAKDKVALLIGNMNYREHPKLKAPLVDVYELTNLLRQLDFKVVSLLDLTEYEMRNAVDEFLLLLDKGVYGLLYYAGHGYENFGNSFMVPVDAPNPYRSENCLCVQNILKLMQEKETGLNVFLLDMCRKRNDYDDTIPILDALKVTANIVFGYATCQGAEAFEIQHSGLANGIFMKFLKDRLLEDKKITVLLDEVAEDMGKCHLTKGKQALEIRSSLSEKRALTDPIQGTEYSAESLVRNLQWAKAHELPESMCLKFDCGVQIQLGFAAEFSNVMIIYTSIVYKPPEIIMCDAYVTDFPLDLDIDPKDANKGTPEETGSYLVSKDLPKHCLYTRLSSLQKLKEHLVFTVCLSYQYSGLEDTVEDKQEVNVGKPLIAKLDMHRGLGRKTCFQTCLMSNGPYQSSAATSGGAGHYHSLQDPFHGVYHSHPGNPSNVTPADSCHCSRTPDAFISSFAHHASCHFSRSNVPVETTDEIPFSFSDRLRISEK

SMILES	pIC50
CN(C(=O)[C@H]1C[C@H](N(C)C)C1)[C@@H](c1ccc(NC2Cc3ccccc3C2(C)C)nc1)C(F)(F)F (single isomer, unassigned) [Example 114]	6.72
CN(C(=O)[C@H]1C[C@H](N(C)C)C1)[C@@H](c1ccc(NC2Cc3ccccc3C2(C)C)nc1)C(F)(F)F (single isomer, unassigned) [Example 115]	6.62
CN(C(=O)C1CCNC(=O)C1)[C@@H](c1ccc(NC2Cc3ccccc3C2(C)C)cn1)C(F)(F)F (single isomer, unassigned) [Example 117]	6.62
CN1CCCC(C(=O)N(C)[C@@H](c2ccc(NC3Cc4ccccc4C3(C)C)cn2)C(F)(F)F)C1 (single isomer, unassigned) [Example 129]	6.68
CN(C(=O)C1CN2CCC1CC2)[C@@H](c1ccc(NC2Cc3ccccc3C2(C)C)cn1)C(F)(F)F (single isomer, unassigned) [Example 140]	6.74
CN(C(=O)N1CCS(=O)(=O)CC1)[C@@H](c1ccc(NC2Cc3ccccc3C2(C)C)cn1)C(F)(F)F (single isomer, unassigned) [Example 142]	6.70
CN1CCC(C(=O)N(C)[C@@H](c2ccc(NC3Cc4ccccc4C3(C)C)nc2)C(F)(F)F)CC1 (single isomer, unassigned) [Example 144]	6.68
CN(C(=O)C1CCNCC1)[C@@H](c1ccc(NC2Cc3ccccc3C2(C)C)cn1)C(F)(F)F (single isomer, unassigned) [Example 146]	6.96
CN(C(=O)[C@H]1C[C@]2(CCN2C)C1)[C@@H](c1ccc(NC2Cc3ccccc3C2(C)C)cn1)C(F)(F)F (single isomer, unassigned) [Example 159]	6.85
CCc1cccc2c1CC(Nc1ccc([C@H](N(C)C(=O)C3CCS(=O)(=O)CC3)C(F)(F)F)nc1)C2 (single isomer, unassigned) [Example 198]	7.11
CN(C(=O)C1CCS(=O)(=O)CC1)[C@@H](c1ccc(N[C@H]2Cc3ccc(Cl)cc3C2)cn1)C(F)(F)F (single isomer, unassigned) [Example 199]	7.14

Now those with a higher pIC50, led by results:

pIC50	SMILES
7.15	CN(C(=O)C1CC2(CNC(=O)OC2)C1)[C@@H](c1ccc(NC2Cc3ccccc3C2(C)C)nc1)C(F)(F)F (single isomer, unassigned) [Example 174]
7.17	CN(C(=O)C1CCNC(=O)C1)[C@@H](c1ccc(NC2Cc3ccccc3C2(C)C)cn1)C(F)(F)F (single isomer, unassigned) [Example 116]
7.17	CN(C(=O)[C@H]1C[C@H](N(C)C)C1)[C@@H](c1ccc(NC2Cc3ccccc3C2(C)C)cn1)C(F)(F)F (single isomer, unassigned) [Example 113]
7.28	CC(=O)N1CCC[C@H]1C(=O)N(C)[C@@H](c1ccc(N[C@H]2Cc3ccccc3C2(C)C)cn1)C(F)(F)F (single isomer, unassigned) [Example 194]
7.48	CN(C(=O)C1COCC(=O)N1)[C@@H](c1ccc(NC2Cc3ccccc3C2(C)C)cn1)C(F)(F)F (single isomer, unassigned) [Example 164]
7.59	CN(C(=O)C1CCS(=O)(=O)CC1)[C@@H](c1ccc(NC2Cc3cccc(C(F)(F)F)c3C2)cn1)C(F)(F)F (single isomer, unassigned) [Example 191]
